The values that follow come from US9958433B2, “Method and system for in vitro developmental toxicity testing” (Agency for Science, Technology and Research, priority 2012, dated 2018).

Like-named read-outs stand apart in the source and are kept apart here. A value given as a limit tells only on which side of the number the result lay.

One data set concerns μP-hESC colony. Briefly: Live imaging / kymograph of collective cell migration in μP-hESC colony under drug treatment. It counts as cell-based, human. The text has this:
Spatially localized differentiated cells (at edge of stem cell colony) underwent coordinated cell movement to form a 3D-like structural motif as observed by live imaging (FIG. 8D). The trajectory of the coordinated cell movement can be seen from a space-time plot (kymograph) of the differentiating stem cells (FIG. 8E).

For a further data set, the system named is μP-hESC colonies. Briefly: PCA of morphological features of mesoendoderm motif in μP-hESC colonies (dose-dependent developmental toxicity). On the procedure: Alterations to the different morphological features of the mesoendoderm structural motif were quantitatively measured by image processing at different concentrations of drugs. These morphological features at different drug concentrations were analyzed with principal component analysis (PCA). A data point represents each morphological feature; the data point color represents the drug concentration used in the treatment. […] Data Collection Process: 1. Treat our μP-hESC colonies with 3 different concentrations of each drug and fix the samples on day 3 together with the untreated normal control samples. Acquire T immunofluorescence images of samples under Olympus fluorescence microscope. 2. Process all the T fluorescence images using Matlab to extract all the relevant morphological features of the samples representing the spatial distribution of the mesoendoderm motif (T^+ positive region in the images).

Data set [1] has as its system micropatterned hESC colonies. Nature of the data set: Micropatterned hESC mesoendoderm pattern disruption (Brachyury immunofluorescence, Asymmetrical Ratio). Particulars: for Asymmetrical Ratio decrease relative to untreated control: 3 days of differentiation, control ratio 3; for Asymmetrical Ratio after treatment (average intensity ratio of ring area to off-ring area): human, 3 days. An excerpt:
In order to generate gradients of mechanical stress, circle or square shapes of Matrigel matrix with two different sizes (785000 μm2 or 196250 μm2) were designed using AutoCAD software. Then polydimethylsiloxane (PDMS) stencils were fabricated by using a laser-cutter (Universal Laser System) to cut the designated shape patterns on a 127 μm thick PDMS sheet (Specialty Silicone Products Inc.) and then bonding it to a laser-cut, 2 mm thick PDMS gasket. For cell patterning, the PDMS stencil was first sealed into a 60 mm petri dish by adding 200 μl 70% ethanol and dried in the tissue culture hood, then Matrigel™ (BD Biosciences) matrix was coated by at least hour incubation with the Matrigel™ solution (FIG. 1). Thereafter cells were seeded at a density of 4 million cells/ml. After 1 hour incubation for cell attachment, the stencil and excess unattached cells were removed. The surface was then passivated with 0.5% pluronic acid for 10 mins before 3-time washing. The acquired patterned hESC were incubated overnight in mTesR1 maintenance medium (StemCell Technologies) for stabilization and the mesoendoderm induction was started the next day.
The differentiation of patterned hESC colonies were induced by mesoendoderm induction medium, which comprises of 100 ng/ml Activin, 25 ng/ml BMP4 and 10 ng/ml FGF2 in basal serum-free APEL™ medium (STEMdiff™, StemCell Technologies). For developmental toxicity testing, the patterned hESC colonies were cultured in mesoendoderm induction medium together with the test chemical. The induction lasted 3 days and the medium is half changed daily with/without the test chemical.
Samples were fixed on Day 3 of differentiation. Immunofluorescence staining was done to check the expression distribution of early mesoendodermal marker Brachyury. Image acquisition was done under 10× objective using Olympus fluorescence microscope and Asymmetrical Ratio was calculated using MATLAB programming (FIG. 5). Results
Three known teratogens (0.1 mM Valproic acid (VPA), 0.05 ug/ml 5-Fluorouracil (5-FU), and 0.8 mM Thalidomide) were tested using this model. Mesoendoderm induction medium together with the drug was added into our model and incubated for 3 days before the samples were fixed for immunofluorescence staining of Brachyury. Half of the medium was changed daily with the drug. An untreated control which was only cultured in mesoendoderm induction medium without any drug was also done. […] In order to measure the disruption, we used Asymmetrical Ratio as a parameter to evaluate the asymmetrical patterns with or without drug treatment, which indicate the average intensity ratio of “ring” area to “off-ring” area (FIG. 5).

In data set [2] the test system is hESC cell line H9.
Data set [3] concerns adult human dermal fibroblasts (aHDFs).
Data set [4] shares this test system. Nature of the data set: Cytotoxicity test (MTS) on adult fibroblasts. Particulars: at the drug's effective concentration (EC).
In data set [5] the test system is hESC cell line H9. Briefly: Cytotoxicity test (MTS) on hESC. The settings on record: at the drug's effective concentration (EC).
Another data set has as its system human. The settings on record: cited from earlier work.

For the molecule `CC1(C)S[C@@H]2[C@H](NC(=O)Cc3ccccc3)C(=O)N2[C@H]1C(=O)O` [Penicillin G], in the data set with μP-hESC colony (day2-3 of differentiation), the “Trajectories of collective cell migration (kymograph)” value (“Trajectories” below) is given as “unaffected”. For the same molecule, the “PCA clustering of morphological features by drug concentration” value in the data set with μP-hESC colonies (3 concentrations of each drug, day 3) is recorded as “cannot be segregated”. Besides, the “Drug classification by developmental toxicity effect” value (from here on “Drug classification”) in the data set with μP-hESC colonies (based on PCA and cytotoxicity test (MTS) results) is listed as “non-developmental toxic”. Besides, in the data set on μP-hESC colonies (day 3, μP-hESC colonies), the “Concentrations at which spatial distribution of mesoendoderm motif was significantly disrupted (PCA)” value was greater than 1000 µg/mL. For the same molecule, the “Effective concentration (lowest concentration which significantly disrupted spatial localization of mesoendoderm motif)” value with μP-hESC colonies (μP-hESC models) is “above 1000 μg/ml”. Moreover, in data set [1] (day3, FIG. 9B), the “Localization of the mesoendoderm motif (T+ region)” value (“Localization … (T+ region)” below) was “remained unchanged”.

For the molecule `O=c1[nH]cc(F)c(=O)[nH]1` [5-FU, 5-Fluorouracil], the “Asymmetrical Ratio decrease relative to untreated control” value in data set [1] (0.05 μg/ml 5-FU) is on record as 46.7%. Moreover, in data set [1] (0.05 μg/ml), the “Asymmetrical Ratio after treatment (average intensity ratio of ring area to off-ring area)” value (from here on “Asymmetrical Ratio after treatment”) turned out to be 1.6.

As for `CCCC(CCC)C(=O)O` [VPA, Valproic acid], in the data set with μP-hESC colony, the “Trajectories” value was “disrupted”. Besides, in the data set with hESC cell line H9 [2], the “Toxicity to H9 cells” value is “very toxic”. In the data set on hESC cell line H9 [2] (human), the H9 cell survival is on record as roughly 20%. Also, the “Toxicity to aHDFs” value in data set [3] was “a little toxic”. In the data set with μP-hESC colonies, the “Drug classification” value is listed as “very embryotoxic”. Also, in the data set with μP-hESC colonies (human, 3 days), the “Concentrations at which spatial distribution of mesoendoderm motif was significantly disrupted (PCA)” value is on record as “>= 0.8 mM” and the “Effective concentration (lowest concentration which significantly disrupted spatial localization of mesoendoderm motif)” value is roughly 0.8 mM. Besides, the “Localization … (T+ region)” value in data set [1] is on record as “misplaced”. Also, the “Asymmetrical Ratio decrease relative to untreated control” value in data set [1] (0.1 mM VPA) is listed as roughly 70%. Moreover, the “Asymmetrical Ratio after treatment” value in data set [1] (0.1 mM) is given as roughly 0.9.

As for `O=C1CCC(N2C(=O)c3ccccc3C2=O)C(=O)N1` (stereo not shown) [Thalidomide], in data set [4], the “Toxicity to aHDFs” value is recorded as “not toxic”. In addition, in the data set with μP-hESC colony, the “Trajectories” value is reported as “disrupted”. Further, in the data set on hESC cell line H9 [5], the H9 cell survival was greater than 50% and the “Toxicity to H9 cells” value was “toxic”. Also, in the data set on human, the Developmental deformation entry is given as “causes developmental deformation in human”. Further, the “Drug classification” value in the data set on μP-hESC colonies was “both teratogenic and embryotoxic”. For the same molecule, in the data set on μP-hESC colonies (human, 3 days), the “Concentrations at which spatial distribution of mesoendoderm motif was significantly disrupted (PCA)” value is on record as “>= 300 μM” and the “Effective concentration (lowest concentration which significantly disrupted spatial localization of mesoendoderm motif)” value is roughly 0.3 mM. In addition, the “Localization … (T+ region)” value in data set [1] is “misplaced”. Also, in data set [1] (0.8 mM Thalidomide), the “Asymmetrical Ratio decrease relative to untreated control” value is given as roughly 70%. For the same molecule, the “Asymmetrical Ratio after treatment” value in data set [1] (0.8 mM) was roughly 0.9.

In the case of `CC1=C(/C=C/C(C)=C/C=C/C(C)=C/C(=O)O)C(C)(C)CCC1` [RA, retinoic acid], the “Toxicity to aHDFs” value in data set [4] was “not toxic”. In the data set on hESC cell line H9 [5], the “Toxicity to H9 cells” value is on record as “not toxic”. Besides, the “Drug classification” value with μP-hESC colonies was “teratogenic”. In the data set on μP-hESC colonies (human, 3 days), the “Concentrations at which spatial distribution of mesoendoderm motif was significantly disrupted (PCA)” value is given as “>= 0.0036 μg/ml” and the “Effective concentration (lowest concentration which significantly disrupted spatial localization of mesoendoderm motif)” value was roughly 0.0036 µg/mL.
